assay: In vitro test for inhibition of [125I]CCK binding to Cholecystokinin type B receptor from guinea pig cortical membranes was determined

Row | Compound | IC50 [nM]
1 | Cc1cccc(NC(=O)NC2N=C(C3CCC3)c3ccccc3N(C)C2=O)c1 (stereo not drawn) [1-(5-Cyclobutyl-1-methyl-2-oxo-2,3-dihydro-1H-benzo[e][1,4]diazepin-3-yl)-3-m-tolyl-urea] | 30
2 | Cc1cccc(NC(=O)NC2N=C(C3CCCC3)c3ccccc3N(C)C2=O)c1 (stereo not drawn) [1-(5-Cyclopentyl-1-methyl-2-oxo-2,3-dihydro-1H-benzo[e][1,4]diazepin-3-yl)-3-m-tolyl-urea] | 16
3 | Cc1cccc(NC(=O)N[C@H]2N=C(C3CCCCC3)c3ccccc3N(C)C2=O)c1 [1-((S)-5-Cyclohexyl-1-methyl-2-oxo-2,3-dihydro-1H-benzo[e][1,4]diazepin-3-yl)-3-m-tolyl-urea] | 169

Source: BindingDB's records for doi:10.1016/S0960-894X(01)80987-2 (1993)
